# Values of other authors, collected in patent EP0611304B1, “USE OF […] (ACEMANNAN) FOR THE REGULATION OF BLOOD C[…] AND FOR REMOVING PLAQUES IN BLOOD VESSELS” (CARRINGTON LABORATORIES, INC., priority 1991, dated 1993).
# Tested on: CEM cells infected with HTLV-IIIRFII virus
# Settings: 0.001 µg/ml AZT alone
smiles,measurement,value
"Cc1cn([C@H]2C[C@H](N=[N+]=[N-])[C@@H](CO)O2)c(=O)[nH]c1=O [AZT, Zidovudine]",increase in viability of infected CEM cells,no more than 10%
